Six compounds from patent US5610174A, “Use of α1A -selective adrenoceptor agonists for the treatment of urinary incontinence” (priority 1995, dated 1997) can be followed below.

Like-named read-outs stand apart in the source and are kept apart here.

One test addresses T1, human α2C adrenoceptor (Homo sapiens, UniProt P18825).
T1 construct: expressed in transfected cells; host or cells: LM(tk-)
T1 sequence (P18825 1-462): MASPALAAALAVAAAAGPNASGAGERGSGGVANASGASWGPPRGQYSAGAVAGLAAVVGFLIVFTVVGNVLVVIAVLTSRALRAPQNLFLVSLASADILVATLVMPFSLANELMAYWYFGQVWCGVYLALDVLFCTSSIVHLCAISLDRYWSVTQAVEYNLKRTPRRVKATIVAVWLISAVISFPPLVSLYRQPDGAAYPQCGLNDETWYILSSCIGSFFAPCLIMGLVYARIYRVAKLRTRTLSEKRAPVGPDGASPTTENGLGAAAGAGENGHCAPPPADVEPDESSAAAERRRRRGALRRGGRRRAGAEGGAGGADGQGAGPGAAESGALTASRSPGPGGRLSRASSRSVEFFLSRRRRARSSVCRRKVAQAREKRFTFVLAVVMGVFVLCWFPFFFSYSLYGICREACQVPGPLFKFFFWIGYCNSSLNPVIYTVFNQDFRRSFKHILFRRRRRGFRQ
Briefly: Radioligand binding ([3H]rauwolscine) at cloned human α2C. The method, then: (§1) To determine the affinity of compounds at the α2 receptors, LM(tk-) cell lines stably transfected with the genes encoding the α2A, α2B, and α2C receptors were used. Cell lysates were prepared as described above (see Radioligand Binding Assays), and suspended in 25 mM glycylglycine buffer (pH 7.6 at room temperature). Equilibrium competition binding assays were performed using [^3 H] rauwolscine (0.5 nM), and nonspecific binding was determined by incubation with 10 μM phentolamine. The bound radioligand was separated by filtration through GF/B filters using a cell harvester.

The target of test [1] is T2, human histamine H1 receptor (Homo sapiens, UniProt P35367).
T2 construct: expressed in transfected cells; host or cells: COS-7 (plasmid pcEXV-H1, ATCC 75346)
Put plainly: Radioligand binding at cloned human histamine H1. To be noted: [3H]mepyramine; for Ki: read-out: pKi H1 (converted). The method, then: Human Histamine H1 Receptor
The coding sequence of the human histamine H1 receptor, homologous to the bovine H1 receptor, was obtained from a human hippocampal cDNA library, and was cloned into the eukaryotic expression vector pCEXV-3. The plasmid DNA for the H1 receptor is designated pcEXV-H1, and was deposited on Nov. 6, 1992 under ATCC Accession No. 75346. This construct was transfected into COS-7 cells by the DEAE-dextran method. Cells were harvested after 72 hours and lysed by sonication in 5 mM Tris-HCl, 5 mM EDTA, pH 7.5. The cell lysates were centrifuged at 1000 rpm for 5 min at 4° C., and the supernatant was centrifuged at 30,000×g for 20 min. at 4° C. The pellet was suspended in 37.8 mM NaHPO4, 12.2 mM KH2 PO4, pH 7.5. […]. The bound radioligand was separated by filtration through GF/B filters using a cell harvester.

Test [2] concerns the target T3, human dopamine D1 receptor (Homo sapiens, UniProt P21728).
T3 construct: expressed in transfected cells
Briefly: Radioligand binding at human dopamine D1. To be noted: for Ki: read-out: pKi D1 (converted). As to the method:
(§2) Other Dopamine receptors were prepared by known methods. (D1 : Dearry et al., Nature, 347, 72, (1990), deposited with the European Molecular Biological Laboratory (EMBL) Genbank as X55760; D3 : Sokoloff, P. et al., Nature, 347, 146 (1990), deposited with the European Molecular Biological Laboratory (EMBL) Genbank as X53944; D5 : Sunahara, R. K., et al., Nature, 350, 614 (1991), deposited with EMBL Genbank as X58454-HU HD 5DR).

The target of test [3] is human dopamine D3 receptor. Put plainly: Radioligand binding at human dopamine D3. The method, then:
as §2

Another test addresses T4, human 5-HT1Dα receptor (Homo sapiens, UniProt P28221).
T4 construct: expressed in transfected cells; host or cells: LM(tk-) clonal cell line, designated Ltk-8-30-84, ATCC CRL 10421 (cell lysates)
Briefly: Radioligand binding at human 5-HT1Dα. As to the method: Human Serotonin Receptors
5-HT1Dα, 5-HT1Dβ, 5-HT1E, 5-HT1F, and 5-HT7 Receptors: The cell lysates of LM(tk-) clonal cell line stably transfected with the genes encoding each of these 5-HT receptor-subtypes were prepared as described above. The cell line for the 5-HT1Dαreceptor, designated as Ltk-8-30-84, was deposited on Apr. […] The cell for the 5-HT1Dβ receptor, designated as Ltk-11, was deposited on Apr. […] The cell line for the 5-HT1E receptor, designated 5-HT1E -7, was deposited on Nov. […] The cell line for the 5-HT1F receptor, designated L-5-HT1F, was deposited on Dec. […] The cell line for the 5-HT7 receptor, designated as L-5-HT-4B, was deposited on Oct. […] These preparations were suspended in 50 mM Tris-HCl buffer (pH 7.4 at 37° C.) containing 10 mM MgCl2, 0.2 mM EDTA, 10 μM pargyline, and 0.1% ascorbate. […] Nonspecific binding was determined in the presence of 10 μM serotonin. The bound radioligand was separated by filtration through GF/B filters using a cell harvester.

For a further test, the target named is T5, human α2B adrenoceptor (Homo sapiens, UniProt P18089).
T5 sequence (P18089 1-450): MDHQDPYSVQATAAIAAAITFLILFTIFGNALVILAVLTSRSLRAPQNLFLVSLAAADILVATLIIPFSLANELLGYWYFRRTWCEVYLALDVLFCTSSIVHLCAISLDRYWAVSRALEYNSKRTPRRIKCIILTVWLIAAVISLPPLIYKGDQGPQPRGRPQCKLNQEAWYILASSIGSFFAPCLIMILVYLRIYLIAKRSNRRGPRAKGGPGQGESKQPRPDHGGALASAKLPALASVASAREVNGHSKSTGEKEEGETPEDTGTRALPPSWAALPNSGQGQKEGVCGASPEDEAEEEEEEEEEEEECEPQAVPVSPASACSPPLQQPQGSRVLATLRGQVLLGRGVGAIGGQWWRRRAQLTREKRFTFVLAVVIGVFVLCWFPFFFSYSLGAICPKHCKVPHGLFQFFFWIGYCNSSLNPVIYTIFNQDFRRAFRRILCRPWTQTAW
Briefly: Radioligand binding ([3H]rauwolscine) at cloned human α2B. Also noted: expressed in transfected cells. The method, then:
as §1

The mark [4] stands for this setting: Table 3, agonists, read-out: pKi α2C (converted).

T3 sequence (P21728 whole entry): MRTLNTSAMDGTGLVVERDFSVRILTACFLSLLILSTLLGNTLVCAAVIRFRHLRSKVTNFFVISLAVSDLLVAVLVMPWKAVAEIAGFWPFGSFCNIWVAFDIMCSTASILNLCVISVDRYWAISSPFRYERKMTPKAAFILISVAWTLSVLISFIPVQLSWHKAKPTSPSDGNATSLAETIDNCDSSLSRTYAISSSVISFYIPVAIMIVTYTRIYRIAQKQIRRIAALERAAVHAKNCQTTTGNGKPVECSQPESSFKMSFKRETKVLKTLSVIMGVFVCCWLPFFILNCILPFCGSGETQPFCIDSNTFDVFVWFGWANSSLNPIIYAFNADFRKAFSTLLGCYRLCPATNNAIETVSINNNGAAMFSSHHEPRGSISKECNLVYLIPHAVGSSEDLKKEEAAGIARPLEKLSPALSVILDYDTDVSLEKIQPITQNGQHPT
T4 sequence (P28221 whole entry): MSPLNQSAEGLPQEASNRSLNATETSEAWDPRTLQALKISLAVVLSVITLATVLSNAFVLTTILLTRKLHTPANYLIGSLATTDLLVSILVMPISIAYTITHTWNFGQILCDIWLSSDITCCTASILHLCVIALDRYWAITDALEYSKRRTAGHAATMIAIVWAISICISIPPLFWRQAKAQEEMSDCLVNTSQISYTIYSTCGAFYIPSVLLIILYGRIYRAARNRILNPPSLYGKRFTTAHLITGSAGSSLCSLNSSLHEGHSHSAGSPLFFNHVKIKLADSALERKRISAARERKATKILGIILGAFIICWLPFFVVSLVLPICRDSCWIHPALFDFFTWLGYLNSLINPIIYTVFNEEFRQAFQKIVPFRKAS
T2 sequence (P35367 whole entry): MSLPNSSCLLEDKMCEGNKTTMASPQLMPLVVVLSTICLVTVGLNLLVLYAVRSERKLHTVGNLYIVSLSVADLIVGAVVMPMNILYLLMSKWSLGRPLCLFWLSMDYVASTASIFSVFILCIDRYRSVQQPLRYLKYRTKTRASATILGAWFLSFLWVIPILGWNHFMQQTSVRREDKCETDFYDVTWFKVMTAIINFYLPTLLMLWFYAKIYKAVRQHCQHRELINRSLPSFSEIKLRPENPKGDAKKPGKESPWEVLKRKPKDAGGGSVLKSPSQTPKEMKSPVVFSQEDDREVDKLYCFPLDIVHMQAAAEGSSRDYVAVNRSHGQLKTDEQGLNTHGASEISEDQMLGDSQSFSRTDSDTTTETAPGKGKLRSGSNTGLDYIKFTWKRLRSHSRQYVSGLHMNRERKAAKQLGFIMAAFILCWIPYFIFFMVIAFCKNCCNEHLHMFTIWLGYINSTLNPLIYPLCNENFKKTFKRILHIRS

As for `CS(=O)(=O)Nc1c(O)ccc2c1CCCC2C1=NCCN1` (racemic) [Compound A-61603, (±)-N-[5-(4,5-Dihydro-1H-imidazol-2-yl)-2-hydroxy-5,6,7,8-tetra-hydronaphthalen-1-yl]methanesulfonamide], the Ki on human α2C adrenoceptor (setting [4]) was 0.631 µM; in test [1], 50.1 µM; in test [2] it was 20 µM; on human 5-HT1Dα receptor ([3H]serotonin, read-out: pKi 5-HT1Dα (converted)) it was 2.51 µM; at human α2B adrenoceptor (Table 3, agonists, read-out: pKi α2B (converted)), 0.316 µM. Further, the “pKi D3” value in test [3] was found to be 5.8.

Consider `COc1ccc(OC)c(C(O)CN)c1` (racemic) [ST-1059, (±)-2-Amino-1-(2, 5 dimethoxyphenyl) ethanol], for which the Ki at human α2C adrenoceptor was 3.98 µM; on human α2B adrenoceptor, 1.58 µM.

On to `COc1ccc(SC)c2c1C[C@@H]1[C@@H](C2)OCCN1C` (relative stereo) [SDZ NVI-085, (±)-trans-4-Methyl-6-methoxy-9-thiomethoxy-3,4,4a, 5,10,10a-hexahydro-2H-naphtho[2,3-b][1,4]oxazine], for which the Ki on human α2C adrenoceptor (setting [4]) is 0.794 µM; in test [1], 5.01 µM; in test [2], 7.94 µM; on human 5-HT1Dα receptor, 0.0126 µM; at human α2B adrenoceptor, 0.0631 µM. In addition, the “pKi D3” value in test [3] is 6.0.

On to `CN[C@@H](C)[C@H](O)c1ccccc1` [(-)-ephedrine], for which the figures for the Ki on human α2C adrenoceptor and on human α2B adrenoceptor were 7.94 µM and 2.51 µM, respectively.

For the compound `C[C@H](N)[C@H](O)c1ccccc1` [(-)-norephedrine], the Ki was 3.16 µM on human α2C adrenoceptor and 0.251 µM on human α2B adrenoceptor.

`CNCCc1ccc(O)c(NS(C)(=O)=O)c1` [SK&F 102652]: the “pKi H1” value in test [1] is 4.3. The “pKi D1” value in test [2] came to 5.0. Also, the “pKi D3” value in test [3] came out at 6.7. For the same compound, the “pKi 5-HT1Dα” value on human 5-HT1Dα receptor ([3H]serotonin) is 5.9.
